Experimental data taken from ChEMBL document CHEMBL1201862, “PubChem BioAssay data set” (2004).
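Test compounds were applied to cells in 96-well plates for 48 hours at 5 doses. GI50: concentration for 50% inhibition of growth.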 Activity calls are given as the source filed them. Cut-off read from the data, not from the text of the source: active = GI50 up to about 1.1 µM and inactive = higher.

Legend:
Assay in all cases: inhibition of tumour cell growth, NCI panel, 48 h
SNB-75 = tested on: SNB-75
MCF7 = tested on: MCF7
MDA-MB-231 = tested on: MDA-MB-231
SF-268 = tested on: SF-268
SW-620 = tested on: SW-620
NCI-H460 = tested on: NCI-H460
NCI-H23 = tested on: NCI-H23
RXF 393 = tested on: RXF 393
HT-29 = tested on: HT-29
HCT-116 = tested on: HCT-116
OVCAR-5 = tested on: OVCAR-5
OVCAR-3 = tested on: OVCAR-3
U-251 = tested on: U-251
SR = tested on: SR
UACC-62 = tested on: UACC-62
HOP-92 = tested on: HOP-92
CCRF-CEM = tested on: CCRF-CEM
DU-145 = tested on: DU-145
Hs-578T = tested on: Hs-578T
CAKI-1 = tested on: CAKI-1
LOX IMVI = tested on: LOX IMVI
SF-539 = tested on: SF-539
NCI-H226 = tested on: NCI-H226
KM12 = tested on: KM12
EKVX = tested on: EKVX
OVCAR-8 = tested on: OVCAR-8
HL-60 = tested on: HL-60
Malme-3M = tested on: Malme-3M
HCC 2998 = tested on: HCC 2998
MOLT-4 = tested on: MOLT-4
OVCAR-4 = tested on: OVCAR-4
A498 = tested on: A498
786-0 = tested on: 786-0
M14 = tested on: M14
UACC-257 = tested on: UACC-257
ACHN = tested on: ACHN
TK-10 = tested on: TK-10
MDA-MB-435 = tested on: MDA-MB-435
K562 = tested on: K562
SK-MEL-28 = tested on: SK-MEL-28
COLO 205 = tested on: COLO 205
MDA-N = tested on: MDA-N
SK-OV-3 = tested on: SK-OV-3
NCI-H522 = tested on: NCI-H522
HCT-15 = tested on: HCT-15
SF-295 = tested on: SF-295
SN12C = tested on: SN12C
IGROV-1 = tested on: IGROV-1
T47D = tested on: T47D
HOP-62 = tested on: HOP-62
NCI/ADR-RES = tested on: NCI/ADR-RES
SNB-19 = tested on: SNB-19
UO-31 = tested on: UO-31
A549 = tested on: A549
RPMI-8226 = tested on: RPMI-8226
PC-3 = tested on: PC-3
SK-MEL-5 = tested on: SK-MEL-5
SK-MEL-2 = tested on: SK-MEL-2

Measured: GI50

CC(C)(Oc1ccccc1)C(=O)Sc1c(-c2ccccc2)c(=O)n(-c2ccccc2)c(=S)n1-c1ccccc1
inactive: SNB-75 > 100 µM | MCF7 46.6 µM | MDA-MB-231 28.8 µM | SF-268 26.9 µM | SW-620 88.3 µM | NCI-H460 27.3 µM | NCI-H23 > 100 µM | RXF 393 26.4 µM | HT-29 50.9 µM | HCT-116 50.1 µM | OVCAR-5 75.3 µM | OVCAR-3 32 µM | U-251 21.6 µM | SR 22.1 µM | UACC-62 80 µM | HOP-92 > 100 µM | CCRF-CEM 25.9 µM | DU-145 95.9 µM | Hs-578T 24.2 µM | CAKI-1 > 100 µM | LOX IMVI 49.5 µM | SF-539 23.8 µM | NCI-H226 31.1 µM | KM12 31.8 µM | EKVX > 100 µM | OVCAR-8 18.6 µM | HL-60 25.9 µM | Malme-3M 95.5 µM | HCC 2998 46.8 µM | MOLT-4 36.4 µM | OVCAR-4 32.9 µM | A498 80.9 µM | 786-0 31.2 µM | M14 27 µM | UACC-257 > 100 µM | ACHN 33.1 µM | TK-10 92.5 µM | MDA-MB-435 20.6 µM | K562 41.4 µM | SK-MEL-28 49.7 µM | COLO 205 39.8 µM | MDA-N 56.8 µM | SK-OV-3 26.7 µM | NCI-H522 21.9 µM | SF-295 59.8 µM | SN12C 51.3 µM | IGROV-1 22.6 µM | T47D 64.3 µM | HOP-62 22 µM | NCI/ADR-RES 62.7 µM | SNB-19 47.2 µM | UO-31 65.3 µM | A549 43.3 µM
56.6 µM: HCT-15

Nc1nc(Cl)cc(OCC2(CO)CCCCC2)n1
inactive: SNB-75 66.1 µM | MCF7 50.5 µM | SF-268 > 100 µM | SW-620 > 100 µM | NCI-H460 > 100 µM | NCI-H23 > 100 µM | RXF 393 63.7 µM | HT-29 > 100 µM | HCT-116 > 100 µM | OVCAR-5 > 100 µM | OVCAR-3 > 100 µM | U-251 86.5 µM | RPMI-8226 60.5 µM | SR > 100 µM | HOP-92 40.7 µM | CCRF-CEM > 100 µM | DU-145 > 100 µM | Hs-578T > 100 µM | LOX IMVI > 100 µM | SF-539 > 100 µM | NCI-H226 > 100 µM | EKVX 84.7 µM | OVCAR-8 96.6 µM | HL-60 85.7 µM | Malme-3M > 100 µM | HCC 2998 24.8 µM | MOLT-4 > 100 µM | OVCAR-4 > 100 µM | A498 40.7 µM | 786-0 > 100 µM | UACC-257 78.7 µM | ACHN > 100 µM | TK-10 > 100 µM | MDA-MB-435 > 100 µM | K562 > 10 µM | SK-MEL-28 > 100 µM | PC-3 > 100 µM | MDA-N > 100 µM | SK-MEL-5 40.9 µM | NCI-H522 53.1 µM | SF-295 > 100 µM | SN12C > 100 µM | IGROV-1 > 100 µM | HOP-62 > 100 µM | NCI/ADR-RES > 100 µM | SNB-19 > 100 µM | A549 69.7 µM
24.5 µM: HCT-15

O=[N+]([O-])c1ccc2[nH]nc(OCc3ccccn3)c2c1
inactive: SNB-75 31.5 µM | MDA-MB-231 > 100 µM | SF-268 > 100 µM | SW-620 > 100 µM | NCI-H460 > 100 µM | NCI-H23 > 100 µM | SK-MEL-2 82.2 µM | RXF 393 > 100 µM | HT-29 > 100 µM | HCT-116 > 100 µM | OVCAR-5 > 100 µM | OVCAR-3 61 µM | U-251 99.8 µM | RPMI-8226 > 100 µM | SR > 100 µM | UACC-62 > 100 µM | HOP-92 35.7 µM | CCRF-CEM > 100 µM | DU-145 > 100 µM | Hs-578T 35.2 µM | CAKI-1 > 100 µM | LOX IMVI > 100 µM | SF-539 > 100 µM | NCI-H226 > 100 µM | KM12 > 100 µM | EKVX > 100 µM | OVCAR-8 > 100 µM | HL-60 > 100 µM | Malme-3M > 100 µM | HCC 2998 > 100 µM | MOLT-4 > 100 µM | OVCAR-4 > 100 µM | A498 > 100 µM | 786-0 > 100 µM | M14 > 100 µM | UACC-257 > 100 µM | ACHN > 100 µM | TK-10 47.2 µM | MDA-MB-435 > 100 µM | K562 > 100 µM | SK-MEL-28 > 100 µM | PC-3 > 100 µM | COLO 205 > 100 µM | MDA-N > 100 µM | SK-MEL-5 > 100 µM | SK-OV-3 73.8 µM | NCI-H522 > 100 µM | SF-295 38.8 µM | SN12C > 100 µM | IGROV-1 > 100 µM | T47D 47 µM | HOP-62 > 100 µM | NCI/ADR-RES > 100 µM | SNB-19 50.5 µM | UO-31 > 100 µM | A549 > 100 µM
> 100 µM: HCT-15

O=C1C(Cl)=C(N2CCSCC2)C(=O)c2c(O)ccc(O)c21
active: SNB-75 1 µM | MDA-MB-231 0.308 µM | SF-268 0.514 µM | SW-620 0.258 µM | NCI-H460 0.494 µM | NCI-H23 0.273 µM | SK-MEL-2 0.204 µM | RXF 393 0.243 µM | HT-29 0.366 µM | HCT-116 0.307 µM | RPMI-8226 0.1 µM | SR 0.292 µM | UACC-62 0.525 µM | HOP-92 1.02 µM | DU-145 0.802 µM | Hs-578T 0.501 µM | CAKI-1 0.528 µM | LOX IMVI 0.186 µM | NCI-H226 0.347 µM | KM12 0.38 µM | Malme-3M 0.382 µM | MOLT-4 0.641 µM | OVCAR-4 0.552 µM | 786-0 0.1 µM | M14 0.33 µM | ACHN 0.424 µM | TK-10 0.465 µM | MDA-MB-435 0.631 µM | SK-MEL-28 0.857 µM | PC-3 0.1 µM | COLO 205 0.1 µM | MDA-N 0.33 µM | SK-MEL-5 0.451 µM | SK-OV-3 0.581 µM | NCI-H522 0.312 µM | SF-295 0.1 µM | IGROV-1 0.776 µM | T47D 0.662 µM | NCI/ADR-RES 0.1 µM | UO-31 0.569 µM | A549 0.469 µM
inactive: UACC-257 1.51 µM
